Reference: patent publication US9050344B2, “Therapeutic compounds” (Gilead Sciences, Inc., priority 2013, dated 2015)

Columns and labels:
MT-4 cells = assay: Test B: Cytotoxicity Assay (protocol of Test A, uninfected cells); assay type: cell-based; details: uninfected MT-4 cells, 5 days, CellTiter-Glo
Method: (§1) Test B: Cytotoxicity Assay Compound cytotoxicity and the corresponding CC50 values was determined using the same protocol as described in the antiviral assay (Test A) except that uninfected cells were used.

[1] = as above; assay type: cell-based; details: human, uninfected MT-4 cells, CellTiter-Glo
Method: as §1

HIV-IIIb = assay: Test A: Antiviral Assay in MT4 Cells; assay type: cell-based, HIV-1; details: Human immunodeficiency virus 1, IIIB, MT4, 120 h, read-out: % inhibition at 3 μM
Method: Test A: Antiviral Assay in MT4 Cells
For the antiviral assay, 40 μL of 1× test concentration of 3-fold serially diluted compound in culture medium with 10% FBS was added to each well of a 384-well plate (10 concentrations) in quadruplicate. MT-4 cells were next mixed with HIV-IIIb at an m.o.i of 0.003 for 1 hour, after which time 35 μL of virus/cell mixture (2000 cells) was immediately added to each well containing 40 μL of diluted compound. The plates were then incubated at 37° C. for 5 days. After 5 days of incubation, 25 μl of 2× concentrated CellTiter-Glo™ Reagent (catalog #G7571, Promega Biosciences, Inc., Madison, Wis.) was added to each well containing MT-4 cells. Cell lysis was carried out by incubating at room temperature for 10 min and then chemiluminescence was read.

Structure (SMILES)	CC50 (MT-4 cells)	CC50 at 5 days [1]	inhibition at 3 µM (HIV-IIIb)
CC(=O)Oc1ccc(-c2ccc(F)c(C(N)=O)c2)c([C@H](Cc2cc(F)cc(F)c2)NC(=O)Cn2nc(C(F)F)c3c2C(F)(F)CCC3(F)F)n1 [Compound 20B, (S)-5-(3-carbamoyl-4-fluorophenyl)-6-(1-(2-(3-(difluoromethyl)-4,4,7,7-tetrafluoro-4,5,6,7-tetrahydro-1H-indazol-1-yl)acetamido)-2-(3,5-difluorophenyl)ethyl)pyridin-2-yl acetate]	> 53.2 µM		
CN1CCN(c2ccc(-c3ccc(Cl)c4c(NS(C)(=O)=O)nn(C)c34)c([C@H](Cc3cc(F)cc(F)c3)NC(=O)Cn3nc(C(F)(F)F)c4c3C(F)(F)[C@@H]3C[C@H]43)n2)CC1 [Compound 60C, N—((S)-1-(3-(4-chloro-1-methyl-3-(methylsulfonamido)-1H-indazol-7-yl)-6-(4-methylpiperazin-1-yl)pyridin-2-yl)-2-(3,5-difluorophenyl)ethyl)-2-((3bS,4aR)-5,5-difluoro-3-(trifluoromethyl)-3b,4,4a,5-tetrahydro-1H-cyclopropa[3,4]cyclopenta[1,2-c]pyrazol-1-yl)acetamide]		9.11 µM	90%
Cn1nc(NS(C)(=O)=O)c2cccc(-c3nc(N)cnc3C(Cc3cc(F)cc(F)c3)NC(=O)Cn3nc(C(F)F)c4c3C(F)(F)[C@@H]3C[C@H]43)c21 (stereo partly drawn) [Compound 61, N-(1-(5-amino-3-(1-methyl-3-(methylsulfonamido)-1H-indazol-7-yl)pyrazin-2-yl)-2-(3,5-difluorophenyl)ethyl)-2-((3bS,4aR)-3-(difluoromethyl)-5,5-difluoro-3b,4,4a,5-tetrahydro-1H-cyclopropa[3,4]cyclopenta[1,2-c]pyrazol-1-yl)acetamide]		> 53.2 µM	75%
